Measurements as given in the supplement of paper PMC10307832.

Key:
Assay in all cases: relative viability (nuclei count vs DMSO), 5 days (fraction); higher = more cells survive
XMD8-85 + Alpelisib = compound: CN1CCN(CC1)C2=CC(=C(C=C2)NC3=NC=C4C(=N3)N(C5=CC=CC=C5C(=O)N4C)C)OC [XMD8-85] + Cc1nc(NC(=O)N2CCC[C@H]2C(N)=O)sc1-c1ccnc(C(C)(C)C(F)(F)F)c1 [Alpelisib] (partner 2 µM)
Procedure, shortened: (§1)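 Cells from lung cancer lines were seeded into 1536-well plates and, one day later, dosed by pin tool. Treatments were either a single drug or a fixed dose of an anchor drug with five library-drug doses (not always all listed) in √10 steps. After 5 days, nuclei were stained in a one-step fixation (final 0.05% Triton X-100, 1% formaldehyde, 1 ug/ml Hoechst) and counted on 4× images, and relative viability is the treated-to-vehicle nuclei ratio, as the median of duplicate plates.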

4EGI-1 + Crizotinib = compound: O=C(O)C(Cc1ccccc1[N+](=O)[O-])=NNc1nc(-c2ccc(Cl)c(Cl)c2)cs1 (mixture of isomers) [4EGI-1] + C[C@@H](Oc1cc(-c2cnn(C3CCNCC3)c2)cnc1N)c1c(Cl)ccc(F)c1Cl [Crizotinib] (partner 1 µM)
Procedure, shortened: as §1

XMD8-85 + Dasatinib = compound: CN1CCN(CC1)C2=CC(=C(C=C2)NC3=NC=C4C(=N3)N(C5=CC=CC=C5C(=O)N4C)C)OC [XMD8-85] + Cc1nc(Nc2ncc(C(=O)Nc3c(C)cccc3Cl)s2)cc(N2CCN(CCO)CC2)n1 [Dasatinib] (partner 0.075 µM)
Procedure, shortened: as §1

4EGI-1 + Foretinib = compound: O=C(O)C(Cc1ccccc1[N+](=O)[O-])=NNc1nc(-c2ccc(Cl)c(Cl)c2)cs1 (mixture of isomers) [4EGI-1] + COc1cc2c(Oc3ccc(NC(=O)C4(C(=O)Nc5ccc(F)cc5)CC4)cc3F)ccnc2cc1OCCCN1CCOCC1 [Foretinib] (partner 0.25 µM)
Procedure, shortened: as §1

Row | Cell Line | relative viability (XMD8-85 + Alpelisib; first compound 0.08 µM) | relative viability (XMD8-85 + Alpelisib; first compound 0.253 µM) | relative viability (XMD8-85 + Alpelisib; first compound 0.8 µM) | relative viability (XMD8-85 + Alpelisib; first compound 2.53 µM) | relative viability (XMD8-85 + Alpelisib; first compound 8 µM) | relative viability (4EGI-1 + Crizotinib; first compound 0.5 µM) | relative viability (4EGI-1 + Crizotinib; first compound 1.581 µM) | relative viability (4EGI-1 + Crizotinib; first compound 5 µM) | relative viability (4EGI-1 + Crizotinib; first compound 15.81 µM) | relative viability (4EGI-1 + Crizotinib; first compound 50 µM) | relative viability (XMD8-85 + Dasatinib; first compound 0.08 µM) | relative viability (XMD8-85 + Dasatinib; first compound 0.253 µM) | relative viability (XMD8-85 + Dasatinib; first compound 0.8 µM) | relative viability (XMD8-85 + Dasatinib; first compound 2.53 µM) | relative viability (XMD8-85 + Dasatinib; first compound 8 µM) | relative viability (4EGI-1 + Foretinib; first compound 0.5 µM) | relative viability (4EGI-1 + Foretinib; first compound 1.581 µM) | relative viability (4EGI-1 + Foretinib; first compound 5 µM) | relative viability (4EGI-1 + Foretinib; first compound 15.81 µM) | relative viability (4EGI-1 + Foretinib; first compound 50 µM)
1 | RERF-LC-KJ | 0.763 | 0.675 | 0.957 | 0.915 | 0.677 | 0.852 | 0.676 | 0.815 | 0.675 | 0.684 | 0.939 | 0.743 | 0.816 | 0.858 | 0.574 | 0.883 | 0.77 | 0.857 | 0.695 | 0.734
2 | SK-MES-1 | 0.769 | 0.654 | 1.03 | 1.02 |  | 1.04 | 0.957 | 1.02 | 0.872 | 0.921 | 0.296 | 0.366 | 0.44 |  | 0.255 | 1.04 | 0.955 | 1.03 | 0.521 | 0.824
3 | NCI-H1993 | 0.707 |  | 0.78 | 0.561 | 0.656 | 0.943 | 0.776 | 0.92 | 0.629 | 0.688 | 0.522 | 0.518 | 0.648 | 0.744 | 0.744 | 0.812 | 0.7 | 0.708 | 0.684 | 0.614
4 | NCI-H1915 | 1.08 | 1.09 | 1.07 | 1.05 | 0.962 | 0.924 | 0.62 | 0.847 | 0.907 | 0.477 | 0.328 | 0.339 | 0.348 | 0.326 | 0.32 | 1.13 | 0.858 | 1.08 | 1.07 | 0.928
5 | NCI-H2170 | 0.759 | 0.812 |  | 0.816 | 0.495 | 1.24 | 1.15 | 1.15 | 0.902 | 0.586 | 0.574 | 0.562 | 0.526 | 0.564 | 0.548 | 0.951 | 0.958 | 0.74 | 1.01 | 0.582
6 | NCI-H1975 | 0.578 | 0.649 | 0.656 | 0.727 | 0.372 | 0.951 | 0.889 | 0.939 | 0.972 | 0.636 | 0.317 | 0.345 | 0.384 | 0.38 | 0.236 | 0.932 | 0.814 | 1.01 | 0.844 | 0.729
7 | HCC-827 | 0.946 | 1.06 | 0.939 | 1.08 | 0.996 | 0.935 | 0.819 | 0.868 |  | 0.685 | 0.403 | 0.33 | 0.34 | 0.439 | 0.457 | 1.07 | 0.889 | 1.05 |  | 0.339
8 | NCI-H2347 | 1.03 | 1.06 | 1.03 | 1 | 0.801 | 0.841 | 0.667 | 0.753 | 0.567 | 0.556 | 0.304 | 0.332 | 0.289 | 0.313 | 0.489 | 0.989 | 0.835 | 1.11 | 0.806 | 0.933
9 | NCI-H1437 | 0.914 | 0.992 | 1.07 | 0.753 | 0.515 | 0.931 | 0.9 | 0.77 | 0.837 | 0.315 | 0.372 | 0.364 | 0.398 | 0.394 | 0.282 | 1.25 | 1.12 | 1.24 | 1.04 | 0.521
10 | NCI-H2126 | 0.628 | 0.767 | 0.814 | 0.776 | 0.724 | 1.03 | 1.05 | 1.03 | 1.03 | 0.777 | 0.601 | 0.625 | 0.613 | 0.562 | 0.417 | 1.34 | 1.55 | 1.28 | 1.07 | 0.785
11 | NCI-H596 |  | 0.558 | 0.511 | 0.411 | 0.403 | 1.15 | 0.846 | 1.13 | 0.878 | 0.557 | 0.599 | 0.541 | 0.553 | 0.556 | 0.545 | 0.856 | 0.644 | 0.796 | 0.757 | 0.75
12 | NCI-H2009 | 1.17 | 1.03 | 1.14 | 1.03 | 0.586 | 1.12 | 1.05 | 1.06 | 0.988 | 0.247 | 0.285 | 0.29 | 0.288 | 0.209 | 0.167 | 1.28 | 1.29 | 1.27 | 1.23 | 0.981
13 | NCI-H2228 |  | 0.724 | 0.78 | 0.891 | 0.488 | 0.416 | 0.508 | 0.653 | 0.502 | 0.195 | 0.451 | 0.514 | 0.516 | 0.398 | 0.231 | 0.906 | 0.878 | 0.938 | 0.882 | 0.166
14 | NCI-H2085 | 0.966 | 0.917 | 1.01 | 0.852 | 0.728 | 0.916 | 0.901 | 0.86 | 0.784 | 0.578 | 0.275 | 0.265 | 0.235 | 0.203 | 0.197 | 0.826 | 1.02 | 1.07 | 0.814 | 0.541
15 | H3255 | 0.586 | 0.745 | 0.68 | 0.776 | 0.406 | 1.14 | 0.573 | 0.856 | 0.612 | 0.541 | 0.45 | 0.325 | 0.353 | 0.333 | 0.335 | 0.982 | 0.788 | 0.907 | 0.775 | 0.823
16 | UMC-11 | 0.954 | 0.931 | 1 | 0.939 | 0.387 | 0.718 | 0.594 | 0.643 | 0.602 | 0.314 | 0.418 | 0.437 | 0.556 | 0.512 | 0.335 | 1.1 | 1.09 | 1.12 | 1.09 | 0.39
17 | NCI-H727 | 0.759 | 0.541 | 0.546 | 0.534 | 0.304 | 1.7 | 0.926 | 0.716 | 0.588 | 0.343 | 0.295 | 0.416 | 0.442 | 0.344 | 0.353 | 1.07 | 1.07 | 0.767 | 1.19 | 0.324
18 | NCI-H460 | 0.447 | 0.442 | 0.688 | 0.401 | 0.147 | 1.2 |  | 1.02 | 0.517 | 0.0403 | 0.423 | 0.443 | 0.554 | 0.475 | 0.178 | 1.02 |  | 0.997 | 0.686 | 0.228
19 | LXF-289 | 1.02 | 0.964 | 1.01 | 1.08 | 0.939 | 0.889 | 0.803 | 0.817 | 0.672 | 0.332 | 0.214 | 0.23 | 0.208 | 0.243 | 0.2 | 0.992 | 0.944 | 1 | 0.943 | 0.771
20 | NCI-H1563 | 1.04 | 0.967 | 0.882 | 0.814 | 0.709 | 0.905 | 0.742 | 0.857 | 0.81 | 0.627 | 0.493 | 0.431 | 0.448 | 0.465 | 0.412 | 0.915 | 0.853 | 0.962 | 0.789 | 0.557
21 | NCI-H1944 | 0.815 | 0.791 | 0.847 | 0.977 | 0.746 | 1.18 |  | 1.01 | 0.981 | 0.599 | 0.203 | 0.228 | 0.204 | 0.223 | 0.203 | 0.894 |  | 0.974 | 0.782 | 0.655
22 | CAL-12T | 1.28 | 1.3 | 1.11 | 0.842 | 0.658 | 0.663 |  | 0.742 | 0.618 | 0.281 | 0.374 | 0.363 | 0.431 | 0.447 | 0.225 | 1.11 | 0.857 | 1.08 | 1.07 | 0.589
23 | NCI-H23 | 0.608 | 0.824 | 0.741 | 0.64 | 0.391 | 0.592 |  | 0.654 | 0.501 | 0.481 | 0.719 | 0.853 | 0.885 | 0.751 | 0.528 | 1.04 |  | 1.1 | 0.933 | 0.638
24 | LK-2 | 1.16 | 1.04 | 1.12 | 1.26 | 0.694 | 0.244 |  | 0.253 | 0.256 | 0.216 |  | 0.305 | 0.262 | 0.261 | 0.222 | 1.23 |  | 1.36 | 1.42 | 0.929
25 | NCI-H358 | 0.957 | 0.856 | 1.11 | 0.854 | 0.584 | 0.566 | 0.413 | 0.645 | 0.378 | 0.247 | 0.167 | 0.173 | 0.169 | 0.207 | 0.18 | 0.739 | 0.657 | 0.84 | 0.515 | 0.11
26 | NCI-H647 | 0.837 | 1.18 | 1.22 | 1.35 | 0.734 | 1.05 | 1.05 | 1.16 | 0.656 | 0.155 | 0.197 | 0.141 | 0.16 | 0.196 | 0.122 | 1.44 |  | 1.18 | 1.24 | 0.66
27 | COR-L 105 |  | 1.22 | 0.926 | 0.635 | 0.358 | 0.722 | 0.626 | 0.789 | 0.887 | 0.784 | 0.336 | 0.364 | 0.292 | 0.268 | 0.171 | 0.983 | 0.172 | 0.993 | 0.863 | 0.728
